Laboratory results: US20140315972A1, “RS)-2-(2-oxo-4-phenylpyrrolidin-1-yl)acetamide compound having modulatory activity with a commensurate effect, pharmaceutical substance (variants) and its application, composition (variants) thereof” (priority 2011, published 2014)
Marks after values point to notes of the source that are not given here.

What was measured:
Type in all cases: in vivo
rats = test: 14-day immobilization in antiorthostatic position (Ds), thymus, spleen, adrenal mass ratios Kt; details: Ds-conditions; for S/A: spleen/adrenals ratio (mg/100 g baseline body weight); for S/T: spleen/thymus ratio (mg/100 g baseline body weight); for T/A: thymus/adrenals ratio (mg/100 g baseline body weight)
mice [1] = test: Apomorphine verticalization (positive symptoms of schizophrenia); details: mice, apomorphine 2 mg/kg s.c.
Method: (§1) Studies have been conducted on white outbred male mice (18-24 g), in comparison with the olanzapine (Zyprexa) with intraperitoneal injection.
In the model of positive symptoms of schizophrenia associated with hyperactivation of the dopamine systems, which allows to identify the ability of substances to block the dopaminergic transmission in the mesolimbic system of the brain, Phenotropil (100, 200, and 300 mg/kg) reduced the apomorphine-induced (2 mg/kg subcutaneously) verticalization intensity scores (Table 4) by 45%, by 2.0 and 2.6 times, respectively.

mice [2] = test: Open field test
Method: Study of the effect of Phenotropil (100, 200, 300 mg/kg) on motor activity and exploratory behavior by the open field test on mice (16-24 g) in comparison with olanzapine (1 mg/kg) is shown in Tables 5-5.4. Olanzapine at higher doses has sedative activity, so for comparison with Phenotropil, the drug was used only at a dose of 1 mg/kg. The drugs and distilled water to control groups were injected intraperitoneally 40 minutes prior to the study. […] This indicates the ability of the drug to reversibility, unlike olanzapine.

mice [3] = test: Tremor caused by arecoline
From the text: as §1

rabbits = test: Transcallosal stimulation induced potential (TSIP); details: Piracetam 300-500, Pyritinol 50-150, Phenotropil 25-300 mg/kg

## NCC(CC(=O)O)c1ccccc1 (stereo not shown) [phenibut]
rats; 50 mg/kg
  S/A: 10.2 ± 0.3
  S/T: 7.6 ± 0.2
  T/A: 1.3 ± 0.6
rats; 100 mg/kg
  S/A: 8.0 ± 0.1
  S/T: 4.7 ± 0.1
  T/A: 1.7 ± 0.1

## NCC(CC(=O)O)c1ccccc1 (stereo not drawn) [Phenibut (+)]
rats; 50 mg/kg
  S/A: 13.0 ± 0.1
  S/T: 4.8 ± 0.1
  T/A: 2.7 ± 0.1

## NC(=O)CN1CC(c2ccccc2)CC1=O (stereo not drawn) [Fepiron (+)]
rats; 200 mg/kg
  S/A: 11.3 ± 0.4
  S/T: 5.4 ± 0.1
  T/A: 2.1 ± 0.6

## Cc1cc2c(s1)Nc1ccccc1N=C2N1CCN(C)CC1 [Olanzapine, reference compound]
Mice [1]; 1.0 mg/kg i.p.
  Intensity of verticalization in points: 36 ± 8.7 points
Mice [1]; 10 mg/kg i.p.
  Intensity of verticalization in points: 16.4 ± 8.4*^ points
Mice [2]; 1 mg/kg
  effect on number of explorations compared to the control: no effect
  increase of number of washes during 1 and 2 minutes: 150%
  increase of number of washes in total: 200%
  reduction of number of rearings: 47%
  reduction of number of visits to the center, total index: 39%
  reduction of overall run distance: 36%
Mice [2]; mice, 1 mg/kg i.p.
  Distance covered during 1st min (horizontal motor activity): 8.3 ± 1.6
  Distance during 2nd min (horizontal motor activity): 8.8 ± 0.8
  Distance during 3rd min (horizontal motor activity): 10.2 ± 0.9
  Explorations during 2nd min: 0.5 ± 0.2^
  Explorations during 3rd min: 1.0 ± 0.3
  Number of explorations (holes) during 1st min: 0.7 ± 0.2^
  Number of washings during 1st min: 0.5 ± 0.2
  Total distance at 3 min (horizontal motor activity): 27.3 ± 2.6
  Total number of explorations at 3 min: 2.2 ± 0.4^
  Total number of visits to the center at 3 min: 0.7 ± 0.3
  Total number of washings at 3 min: 1.2 ± 0.4
  Visits to the center during 1st min: 0 ± 0
  Visits to the center during 2nd min: 0.5 ± 0.2
  Visits to the center during 3rd min: 0.2 ± 0.2
  Washings during 2nd min: 0.5 ± 0.2
  Washings during 3rd min: 0.2 ± 0.2
  vertical motor activity, 1st min (Distance covered): 0.8 ± 0.3
  vertical motor activity, 2nd min: 0.3 ± 0.2
  vertical motor activity, 3rd min: 0.5 ± 0.2
  vertical motor activity, total at 3 min: 1.7 ± 0.4
Mice [3]; 1 mg/kg
  reduction of duration of tremor: 57%
Mice [3]; mice, arecoline 25 mg/kg, 1.0 mg/kg
  Duration of tremor: 178 ± 28 s

## Cc1ncc(CSSCc2cnc(C)c(O)c2CO)c(CO)c1O [Pyritinol]
rabbits
  TSIP P1 + N1 amplitude: + (amplitude increase by less than 50%)
  TSIP component N1 amplitude: + (amplitude increase by less than 50%)
  TSIP component P1 amplitude: + (amplitude increase by less than 50%)
  TSIP component P2 amplitude: + (amplitude increase by less than 50%)
